{"source": "patent US20060127894A1", "about": "“Protein associated with cell growth, differentiation, and death” (Incyte Corporation, priority 2001, published 2006)", "key": {"[1]": {"test_system": "SEQ ID NO:33 expression in BT-20 cells", "experiment": "Microarray expression analysis of BT-20 cells treated with EGF", "assay_type": "cell-based, human", "conditions": "BT-20 breast carcinoma cells", "procedure": "Total RNA is isolated from tissue samples using the guanidinium thiocyanate method and poly(A)^+ RNA is purified using the oligo-(dT) cellulose method. Each poly(A)^+ RNA sample is reverse transcribed using MMLV reverse-transcriptase, 0.05 pg/μl oligo-(dT) primer (21 mer), 1×first strand buffer, 0.03 units/μL RNase inhibitor, 500 μM dATP, 500 μM dGTP, 500 μM dTTP, 40 μM dCTP, 40 μM dCTP-Cy3 (BDS) or dCTP-Cy5 (Amersham Biosciences). The reverse transcription reaction is performed in a […] containing 200 ng poly(A)^+ RNA with GEMBRIGHT kits (Incyte). Specific control poly(A)+ RNAs are synthesized by in vitro transcription from non-coding yeast genomic DNA. […]\nSequences of the present invention are used to generate array elements. […] Array elements are amplified in thirty cycles of PCR from an initial quantity of 1-2 ng to a final quantity greater than 5 μg. […]\nReporter-labeled hybridization complexes are detected with a microscope equipped with an Innova 70 mixed gas 10 W laser (Coherent, Inc., Santa Clara Calif.) capable of generating spectral lines at 488 nm for excitation of Cy3 and at 632 nm for excitation of CyS. […]\nA grid is superimposed over the fluorescence signal image such that the signal from each spot is centered in each element of the grid. […]"}, "[2]": {"test_system": "SEQ ID NO:45 expression in C3A cells", "experiment": "Microarray expression analysis of steroid-treated versus untreated C3A cells", "assay_type": "cell-based, human", "procedure": "Total RNA is isolated from tissue samples using the guanidinium thiocyanate method and poly(A)^+ RNA is purified using the oligo-(dT) cellulose method. Each poly(A)^+ RNA sample is reverse transcribed using MMLV reverse-transcriptase, 0.05 pg/μl oligo-(dT) primer (21 mer), 1×first strand buffer, 0.03 units/μL RNase inhibitor, 500 μM dATP, 500 μM dGTP, 500 μM dTTP, 40 μM dCTP, 40 μM dCTP-Cy3 (BDS) or dCTP-Cy5 (Amersham Biosciences). The reverse transcription reaction is performed in a […] containing 200 ng poly(A)^+ RNA with GEMBRIGHT kits (Incyte). Specific control poly(A)+ RNAs are synthesized by in vitro transcription from non-coding yeast genomic DNA. After incubation at 37° C. for 2 hr, each reaction sample (one with Cy3 and another with Cy5 labeling) is treated with […] of 0.5M sodium hydroxide and incubated for 20 minutes at 85° C. to the stop the reaction and degrade the RNA. Samples are purified using two successive CHROMA SPIN 30 gel filtration spin columns (CLONTECH Laboratories, Inc. (CLONTECH), Palo Alto Calif.) and after combining, both reaction samples are ethanol precipitated using 1 ml of glycogen (1 mg/ml), 60 ml sodium acetate, and 300 ml of 100% ethanol. The sample is then dried to completion using a SpeedVAC (Savant Instruments Inc., Holbrook N.Y.) and resuspended in 14 μl 5×SSC/0.2% SDS.\nSequences of the present invention are used to generate array elements. Each array element is amplified from bacterial cells containing vectors with cloned cDNA inserts. PCR amplification uses primers complementary to the vector sequences flanking the cDNA insert. Array elements are amplified in thirty cycles of PCR from an initial quantity of 1-2 ng to a final quantity greater than 5 μg. Amplified array elements are then purified using […]-400 (Amersham Biosciences).\nHybridization reactions contain 9 μl of sample mixture consisting of 0.2 μg each of Cy3 and Cy5 labeled cDNA synthesis products in 5×SSC, 0.2% SDS hybridization buffer. The sample mixture is heated to 65° C. for 5 minutes and is aliquoted onto the microarray surface and covered with an 1.8 cm^2 coverslip. The arrays are transferred to a waterproof chamber having a cavity just slightly larger than a microscope slide. The chamber is kept at 100% humidity internally by the addition of 140 μl of 5×SSC in a comer of the chamber. The chamber containing the arrays is incubated for about 6.5 hours at 60° C. The arrays are washed for 10 min at 45° C. in a first wash buffer (1×SSC, 0.1% SDS), three times for 10 minutes each at 45° C. in a second wash buffer (0.1×SSC), and dried.\nReporter-labeled hybridization complexes are detected with a microscope equipped with an Innova 70 mixed gas 10 W laser (Coherent, Inc., Santa Clara Calif.) capable of generating spectral lines at 488 nm for excitation of Cy3 and at 632 nm for excitation of CyS. The excitation laser light is focused on the array using a 20× microscope objective (Nikon, Inc., Melville N.Y.). The slide containing the array is placed on a computer-controlled X-Y stage on the microscope and raster-scanned past the objective. The 1.8 cm×1.8 cm array used in the present example is scanned with a resolution of 20 micrometers.\nA grid is superimposed over the fluorescence signal image such that the signal from each spot is centered in each element of the grid. The fluorescence signal within each element is then integrated to obtain a numerical value corresponding to the average intensity of the signal. […]"}, "[3]": {"conditions": "cited from earlier work"}, "[4]": {"test_system": "human umbilical vein endothelial cells (HUVECs)", "conditions": "cited from earlier work"}, "[5]": {"conditions": "dose 10 μM, 1 hour of treatment"}, "[6]": {"conditions": "dose 10 μM, 3 hours of treatment"}}}
{"compound": "epidermal growth factor: a potent mitogen (NSDSECPLSHDGYCLHDGVCMYIEALDKYACNCVVGYIGERCQYRDLKWWELR; Epidermal growth factor; UniProt P01133 971-1023, looked up)", "values": [{"measurement": "expression of SEQ ID NO:33 down-regulated on treatment of BT-20 cells", "setting": "[1]", "result": "at least two-fold"}]}
{"compound": "C[C@H]1C[C@H]2[C@@H]3CCC4=CC(=O)C=C[C@]4(C)[C@@]3(Cl)[C@@H](O)C[C@]2(C)[C@@]1(O)C(=O)CO", "note": "[beclomethasone]", "values": [{"measurement": "expression of SEQ ID NO:45 increased in drug-treated, as compared to untreated, C3A cells", "setting": "[2]; dose 1 μM, 3 hours of treatment", "result": "at least two-fold"}, {"measurement": "expression of SEQ ID NO:45 increased in drug-treated, as compared to untreated, C3A cells", "setting": "[2]; [5]", "result": "at least two-fold"}, {"measurement": "expression of SEQ ID NO:45 increased in drug-treated, as compared to untreated, C3A cells", "setting": "[2]; [6]", "result": "at least two-fold"}, {"measurement": "anti-inflammatory and vasoconstrictive effects relative to hydrocortisone", "setting": "[3]; intranasal, greater than those produced by hydrocortisone", "result": 5000, "unit": "times"}]}
{"compound": "TNF-α", "values": [{"measurement": "increase of cellular secretions of MCP-1 compared with untreated cells", "setting": "[4]", "result": 119, "unit": "fold"}]}
{"compound": "6α-methyl-17-hydroxyprogesterone [medroxyprogesterone]", "values": [{"measurement": "expression of SEQ ID NO:45 increased in drug-treated, as compared to untreated, C3A cells", "setting": "[2]; [5]", "result": "at least two-fold"}, {"measurement": "expression of SEQ ID NO:45 increased in drug-treated, as compared to untreated, C3A cells", "setting": "[2]; [6]", "result": "at least two-fold"}, {"measurement": "pharmacological activity relative to progesterone", "setting": "[3]; greater than progesterone", "result": "about 15 times"}]}
